Source: patent publication US11459375B2, “Cyclic peptides for the treatment of Graves' disease” (advanceCOR GmbH, priority 2017, dated 2022)
Peptide text beside a SMILES is read from it.

Legend:
Ad-TSHR-immunized mice = experiment: anti-TSHR antibody titers in serum of treated Ad-TSHR-immunized mice (3rd generation ELISA, inhibition of M22 binding to TSHR); type: in vivo, BALB/c mice; conditions: 1 mg/kg IV at 4-weekly intervals, after start of therapy despite continuing immunisations
Method: The measurements were carried out in Ad-TSHR-immunized mice treated by either 4-weekly injections with vehicle (0.9% NaCl, “Graves' no therapy”, n=25 mice), or administrations of 1 mg/kg body weight of peptide of the invention 836 (12 mice), or of peptide 829 (13 mice), or of TSHR-Fc (18 mice), or of control peptide 835 (13 mice). In addition, age-matched immunologically naïve unimmunized mice (“healthy”, 19 animals) were investigated. Data are represented as mean±SEM. Significance over time was tested by analysis of variance (ANOVA) of groups at given time points, and controlled by ANOVA for repeated measurements within one group, followed by LSD post-hoc testing. *p<0.05, and **p<0.005, compared to the TSHR-immunized group treated with only NaCl (“Graves' no therapy”).
Animals were kept under standard housing conditions (23±2° C., 55±10% RH) in groups of ten animals in GR1800DD cages (Tecniplast®). […] All guidelines for care of animals were respected. Mice received 10^10 plaque-forming units (pfu) of adenovirus carrying the A-subunit of the TSHR gene. […]
(§1) Anti-TSHR autoantibody titers and potency of antibodies to stimulate TSHR-dependent cAMP levels in test cells were determined before start of immunisation (basal value), 56 days after first immunisation, 133 days after first immunisation, and 189 days after first immunisation, and at the end of experiment.

[1] = tested on: immunologically naïve mice; experiment: tolerability and immunogenicity study in immunologically naive mice; conditions: for clinical findings / tolerability: 1 mg/kg bw IV, monthly administrations for 6 months
Method: BALB/c mice were adapted for at least one week to start experiments at the age of 12 weeks. Animals were kept as described before. […] Peptides (either 1 mg/kg body weight or NaCl vehicle control) were given by IV injection into a tail vein of these naïve mice (n=5 per group), and then continued at 4-weekly intervals for 6 months, as described before for the therapeutic study in immunized mice. Serum samples were taken at identical intervals.
1) “3rd generation assay”: Antibodies against TSHR were detected by a commercially available 3rd generation enzyme immunoassay provided by RSR Limited, Avenue Park, Pentwyn, Cardiff, U.K., in which the of the human Graves patient-derived M22 monoclonal antibody and serum antibodies compete for binding sites on immobilized TSHR. […] The assay was performed using 30 μl 1:10 (PBS) diluted serum in at least double determination according to the manufacturer's instructions.

[2] = tested on: CHO cells expressing the human TSHR; experiment: capacity of serum anti-TSHR antibodies from treated mice to stimulate cAMP in test cells; parameters: species or system BALB/c mice; conditions: serum of in vivo treated Ad-TSHR-immunized mice, 1 mg/kg IV 4-weekly
Method: The measurements were carried out in Ad-TSHR-immunized mice treated by either 4-weekly injections with vehicle (0.9% NaCl, “Graves' no therapy”, n=25 mice), or administrations of 1 mg/kg body weight of peptide of the invention 836 (12 mice), or of peptide 829 (13 mice), or TSHR-Fc (18 mice), or of control peptide 835 (13 mice). In addition, age-matched immunologically naïve unimmunized mice (“healthy”, 19 animals) were investigated. Data are represented as mean±SEM. Differences between groups were tested by AVOVA followed by post hoc LSD testing.**p<0.005 compared to the TSHR-immunized group treated with only NaCl (“Graves' no therapy”). […]
as §1, with “experiment. […]” for “experiment.”
2) Thyroid stimulating antibodies in the serum of hyperthyroid mice were analysed by measuring cyclic adenosine monophosphate (cAMP) generation in Chinese hamster ovary (CHO) cells JP2626 expressing the human TSHR (kindly provided by Dr. Gilbert Vassart, Brussels, Belgium). […]

Row | Molecule | time course of anti-TSHR antibody titers (Ad-TSHR-immunized mice) | clinical findings / tolerability [1] | maximum TSHR-dependent cAMP levels induced in test cells by mouse serum [2] | anti-TSHR antibody titers in naive mice ([1]; 1 mg/kg IV monthly, 6 month observation period) | naive mice with anti-TSHR antibody titers above cut-off limit ([1]; 1 mg/kg IV, after 3 administrations)
1 | CC[C@H](C)[C@@H]1NC(=O)[C@H](C(C)C)NC(=O)[C@H]([C@@H](C)O)NC(=O)[C@H](CC(C)C)NC(=O)[C@H](Cc2ccc(O)cc2)NC(=O)[C@H](CCCCN)NC(=O)[C@H](CC(N)=O)NC(=O)[C@H](CCCCN)NC(=O)[C@H](CC(N)=O)NC(=O)[C@H](CC(C)C)NC(=O)[C@H](Cc2ccc(O)cc2)NC(=O)[C@H](C(C)C)NC(=O)[C@H](C)NC(=O)[C@H](CC(=O)O)NC(=O)[C@H](CC(C)C)NC(=O)[C@H](CCCCN)NC(=O)[C@H]([C@@H](C)O)NC(=O)CNC(=O)[C@H](CC(N)=O)NC(=O)[C@H](Cc2ccccc2)NC(=O)[C@H](C)NC(=O)[C@H](Cc2ccc(O)cc2)NC(=O)CNC(=O)[C@H](CC(=O)O)NC1=O [peptide 836] (cyclo(GYAFNGTKLDAVYLNKNKYLTVID)) | no trends for further anti-TSHR titer increases after start of therapy | no pathological clinical findings were observed |  |  | 
2 | TSHR-Fc: fusion protein: first 289 amino acids of human TSH receptor (A-subunit), GGR linker and Fc portion of human IgG2 | no trends for further anti-TSHR titer increases after start of therapy | developed clinical signs of allergy immediately after 4 administrations | not affected | significantly (p<0.001) higher than in cyclic peptide-treated or vehicle-treated control mice | 3 out of 6
3 | SPPCECHQEEDFRVTCKDIQRIPS [peptide 829] |  |  | not significantly different from controls |  | 
